Assay results from patent US20110105462A1, “MODULATORS OF DOPAMINE NEUROTRANSMISSION” (NSAB, FILIAL AF NEUROSEARCH SWEDEN AB, SVERIGE, priority 2008, published 2011).
Structures can show the parent of a compound that is named as a salt.

Tests used:
[1] = test system: drug-naive rats; assay: Locomotor activity in drug-naive rats (in vivo behaviour); parameters: species or system rat; conditions: recorded for 60 minutes immediately after drug administration
Text: Photobeam sensors are spaced 2.5 cm apart.

[2] = test system: DOPAC (3,4-dihydroxyphenylacetic acid) in the rat striatum; assay: Increase of DOPAC in the rat striatum after systemic administration (in vivo neurochemistry); conditions: sc, systemic administration (s.c.), curve fitting, 95% range printed in the row below each value, read-out: ED50 DOPAC* (estimated ED50 on increase of DOPAC in the rat striatum)
Text: After the behavioural activity sessions, the rats are decapitated and their brains rapidly taken out and put on an ice-cold petri-dish. The limbic forebrain, the striatum, the frontal cortex and the remaining hemispheral parts of each rat are dissected and frozen. Each brain part is subsequently analyzed with respect to its content of monoamines and their metabolites.
The monoamine transmitter substances (NA (noradrenaline), DA (dopamine), 5-HT (serotonin)) as well as their amine (NM (normethanephrine), 3-MT (3-methoxytyramine)) and acid (DOPAC (3,4-dihydroxyphenylacetic acid), 5-HIAA (5-hydroxyindoleacetic acid), HVA (homovanillic acid)) metabolites are quantified in brain tissue homogenates by HPLC separations and electrochemical detection
The analytical method is based on two chromatographic separations dedicated for amines or acids. Two chromatographic systems share a common auto injector with a 10-port valve and two sample loops for simultaneous injection on the two systems. Both systems are equipped with a reverse phase column (Luna C18(2), dp 3 μm, 50*2 mm i.d., Phenomenex) and electrochemical detection is accomplished at two potentials on glassy carbon electrodes (MF-1000, Bioanalytical Systems, Inc.). The column effluent is passed via a T-connection to the detection cell or to a waste outlet. This is accomplished by two solenoid valves, which block either the waste or detector outlet. By preventing the chromatographic front from reaching the detector, better detection conditions are achieved. The aqueous mobile phase (0.4 ml/min) for the acid system contains citric acid 14 mM, sodium citrate 10 mM, MeOH 15% (v/v) and EDTA 0.1 mM. Detection potentials relative to Ag/AgCl reference are 0.45 and 0.60V. The aqueous ion pairing mobile phase (0.5 ml/min) for the amine system contains citric acid 5 mM, sodium citrate 10 mM, MeOH 9% (v/v), MeCN 10.5% v/v), decane sulfonic acid 0.45 mM, and EDTA 0.1 mM. Detection potentials relative to Ag/AgCl reference are 0.45 and 0.65V.
ED50 values for the increase of DOPAC in striatum are calculated by curve fitting.

## CCCNCC1COc2ccc(OS(=O)(=O)C(F)(F)F)cc2O1 (centres unmarked) (as salt: fumaric acid salt) [Example 6, 3-[(PROPYLAMINO)METHYL]-2,3-DIHYDRO-1,4-BENZODIOXIN-6-YL TRIFLUOROMETHANESULFONATE]
other
  melting point: 163 °C

## CCCNCC1COc2cc(F)c(F)cc2O1 (centres unmarked) (as salt: hydrobromic acid salt) [Example 2, N-[(6,7-DIFLUORO-2,3-DIHYDRO-1,4-BENZODIOXIN-2-YL)METHYL]PROPAN-1-AMINE]
other
  melting point: 262 °C

## CCCNC[C@H]1COc2ccc(Br)cc2O1 (as salt: hydrochloric acid salt) [Example 1, N-{[(2S)-7-BROMO-2,3-DIHYDRO-1,4-BENZODIOXIN-2-YL]METHYL}PROPAN-1-AMINE]
other
  melting point: 194 °C

## CCCNCC1COc2ccc(F)cc2O1 (centres unmarked) (as salt: hydrochloric acid salt) [Example 3, N-[(7-FLUORO-2,3-DIHYDRO-1,4-BENZODIOXIN-2-YL)METHYL]PROPAN-1-AMINE]
other
  melting point: 187 °C

## CCCNCC1COc2ccc(Cl)cc2O1 (centres unmarked) (as salt: hydrochloric acid salt) [Example 4, N-[(7-CHLORO-2,3-DIHYDRO-1,4-BENZODIOXIN-2-YL)METHYL]PROPAN-1-AMINE]
other
  melting point: 191 °C

## CCCNCC1COc2ccc(F)c(F)c2O1 (centres unmarked) (as salt: hydrochloric acid salt) [Example 7, N-[(7,8-DIFLUORO-2,3-DIHYDRO-1,4-BENZODIOXIN-2-YL)METHYL]PROPAN-1-AMINE]
other
  melting point: 184 °C

## CCCNCC1COc2c(F)cc(F)cc2O1 (centres unmarked) (as salt: hydrochloric acid salt) [Example 8, N-[(5,7-DIFLUORO-2,3-DIHYDRO-1,4-BENZODIOXIN-2-YL)METHYL]PROPAN-1-AMINE]
other
  melting point: 157 °C

## Fc1ccc2c(c1)O[C@@H](CN1CCCC1)CO2 (as salt: hydrochloric acid salt) [Example 9, 1-{[(2S)-7-FLUORO-2,3-DIHYDRO-1,4-BENZODIOXIN-2-YL]METHYL}PYRROLIDINE]
other
  melting point: 215 °C

## CCCNC[C@H]1COc2ccc(C(F)(F)F)cc2O1 (as salt: hydrochloric acid salt) [Example 58, N-{[(2S)-7-(TRIFLUOROMETHYL)-2,3-DIHYDRO-1,4-BENZODIOXIN-2-YL]METHYL}PROPAN-1-AMINE]
other
  melting point: 166 °C

## CCCNC[C@H]1COc2ccc(Br)cc2O1 [Example 1, N-{[(2S)-7-BROMO-2,3-DIHYDRO-1,4-BENZODIOXIN-2-YL]METHYL}PROPAN-1-AMINE]
[1]; 3.7 μmol/kg
  Locomotor activity (counts/60 min ± SEM): 6714 ± 601 counts/60 min
[1]; 11 μmol/kg
  Locomotor activity (counts/60 min ± SEM): 5111 ± 620 counts/60 min
[1]; 33 μmol/kg
  Locomotor activity (counts/60 min ± SEM): 1326 ± 131 counts/60 min
[2]
  ED50: 3.4 µmol/kg

## CCCNCC1COc2ccc(OS(=O)(=O)C(F)(F)F)cc2O1 (centres unmarked) [Example 6, 3-[(PROPYLAMINO)METHYL]-2,3-DIHYDRO-1,4-BENZODIOXIN-6-YL TRIFLUOROMETHANESULFONATE]
[1]; 3.7 μmol/kg
  Locomotor activity (counts/60 min ± SEM): 9495 ± 2036 counts/60 min
[1]; 11 μmol/kg
  Locomotor activity (counts/60 min ± SEM): 10705 ± 1903 counts/60 min
[1]; 33 μmol/kg
  Locomotor activity (counts/60 min ± SEM): 8064 ± 707 counts/60 min
[2]
  ED50: 12 µmol/kg

## CCCNCC1COc2ccc(F)c(F)c2O1 (centres unmarked) [Example 7, N-[(7,8-DIFLUORO-2,3-DIHYDRO-1,4-BENZODIOXIN-2-YL)METHYL]PROPAN-1-AMINE]
[1]; 3.7 μmol/kg
  Locomotor activity (counts/60 min ± SEM): 7932 ± 2067 counts/60 min
[1]; 11 μmol/kg
  Locomotor activity (counts/60 min ± SEM): 6884 ± 400 counts/60 min
[1]; 33 μmol/kg
  Locomotor activity (counts/60 min ± SEM): 4408 ± 212 counts/60 min
[2]
  ED50: 3.1 µmol/kg

## CCCNCC1COc2c(F)cc(F)cc2O1 (centres unmarked) [Example 8, N-[(5,7-DIFLUORO-2,3-DIHYDRO-1,4-BENZODIOXIN-2-YL)METHYL]PROPAN-1-AMINE]
[1]; 3.7 μmol/kg
  Locomotor activity (counts/60 min ± SEM): 9266 ± 2706 counts/60 min
[1]; 11 μmol/kg
  Locomotor activity (counts/60 min ± SEM): 8320 ± 2405 counts/60 min
[1]; 33 μmol/kg
  Locomotor activity (counts/60 min ± SEM): 5457 ± 536 counts/60 min
[2]
  ED50: 14 µmol/kg

## Fc1ccc2c(c1)O[C@@H](CN1CCCC1)CO2 [Example 9, 1-{[(2S)-7-FLUORO-2,3-DIHYDRO-1,4-BENZODIOXIN-2-YL]METHYL}PYRROLIDINE]
[1]; 3.7 μmol/kg
  Locomotor activity (counts/60 min ± SEM): 5419 ± 1414 counts/60 min
[1]; 11 μmol/kg
  Locomotor activity (counts/60 min ± SEM): 2769 ± 647 counts/60 min
[1]; 33 μmol/kg
  Locomotor activity (counts/60 min ± SEM): 1944 ± 482 counts/60 min

## CCCNC[C@H]1COc2ccc(C(F)(F)F)cc2O1 [Example 58, N-{[(2S)-7-(TRIFLUOROMETHYL)-2,3-DIHYDRO-1,4-BENZODIOXIN-2-YL]METHYL}PROPAN-1-AMINE]
[2]
  ED50: < 3.7 µmol/kg
